The results in this text go back to patent US8642594B2, “Substituted thieno[2,3-d]pyrimidines as HSP90 inhibitors” (Vernalis (R&D) Limited, priority 2003, dated 2014).

As a reminder, the IC50 is the point on the concentration scale where inhibition reaches its midpoint.

T1 sequence (P08238 whole entry): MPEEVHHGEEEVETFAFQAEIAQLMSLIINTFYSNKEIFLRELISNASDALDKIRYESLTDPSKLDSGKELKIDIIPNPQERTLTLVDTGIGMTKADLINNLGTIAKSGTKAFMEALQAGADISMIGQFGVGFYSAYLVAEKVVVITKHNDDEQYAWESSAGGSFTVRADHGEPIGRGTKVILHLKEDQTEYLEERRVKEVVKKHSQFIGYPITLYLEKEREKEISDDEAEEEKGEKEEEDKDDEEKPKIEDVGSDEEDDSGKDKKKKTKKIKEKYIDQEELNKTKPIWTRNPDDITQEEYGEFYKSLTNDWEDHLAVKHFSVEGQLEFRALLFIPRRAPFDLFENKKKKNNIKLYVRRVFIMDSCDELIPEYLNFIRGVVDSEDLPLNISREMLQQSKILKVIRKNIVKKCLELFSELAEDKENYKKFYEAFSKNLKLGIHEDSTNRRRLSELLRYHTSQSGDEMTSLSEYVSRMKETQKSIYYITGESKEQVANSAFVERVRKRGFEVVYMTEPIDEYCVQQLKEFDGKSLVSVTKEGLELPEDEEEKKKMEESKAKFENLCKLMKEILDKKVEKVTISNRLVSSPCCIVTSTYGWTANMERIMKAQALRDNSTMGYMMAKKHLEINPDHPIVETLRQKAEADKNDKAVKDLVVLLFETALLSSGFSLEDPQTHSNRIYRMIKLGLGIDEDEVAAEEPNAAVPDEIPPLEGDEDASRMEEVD

The first assay has as its target T1, Human full-length Hsp90 (Homo sapiens, UniProt P08238).
T1 construct: E. coli expressed human full-length HSP90 protein, purified >95%; made in house; host or cells: E. coli
The assay can be described thus: Fluorescence polarization assay (competitive binding to HSP90, probe RBT0045864-FAM).
Details: not given
The method in brief:
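Competitive fluorescence polarization: test compound displaces FAM-labelled probe RBT0045864-FAM (200 nM working solution) from HSP90 after equilibration, and anisotropy change is measured. Compounds serially diluted; BSA-containing buffer; standard compound as positive control; Z′ from zero and positive controls.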
`CCNC(=O)c1cc2c(-c3cc(OCC(N)=O)c(Cl)cc3Cl)nc(N)nc2s1` [Example 267] yielded an IC50 of less than 10 µM.

In turn, `CCNC(=O)c1cc2c(-c3cc(OCCN4CCN(C)CC4)c(Cl)cc3Cl)nc(N)nc2s1` [Example 246] yielded an IC50 of less than 10 µM.

Still in this assay, the particulars now being: fluorescence polarization assay, activity range; read-out: Hsp90 FP IC50.
Turning to `CC(C)NC(=O)c1cc2c(-c3ccc(Cl)cc3Cl)nc(N)nc2s1` [Example 133], the IC50 was less than 10 µM.

Take `Nc1nc(-c2ccc(Cl)cc2Cl)c2cc(C(=O)Nc3ccccc3)sc2n1` [Example 107]: the IC50 is less than 10 µM.

`CCCNC(=O)c1ccc(C)c(-c2nc(N)nc3sc(C(=O)NCc4ccccc4)cc23)c1` [Example 182]: the half-inhibitory concentration (IC50) was more than 10 µM.

As for `CCOC(=O)c1cc2c(C(=O)c3cc(C)c(C)cc3C)nc(N)nc2s1` [Example 308], the concentration for half-maximal inhibition (IC50) was less than 10 µM.

`CCCOc1ccc(-c2nc(N)nc3sc(C(=O)OCC)cc23)c(C)c1` [Example 185, 2-Amino-4-(2-methyl-4-propoxy-phenyl)-thieno[2,3-d]pyrimidine-6-carboxylic acid ethyl ester]: the IC50 was less than 10 µM.

`Cc1ccc(-c2nc(N)nc3sc(C(=O)N4CCOCC4)cc23)c(C)c1` [Example 96]: the IC50 was more than 10 µM.

Regarding `CCOC(=O)c1cc2c(-c3ccc(Cl)cc3Cl)nc(N)nc2s1` [Example 89], the IC50 is less than 10 µM.

Take `CCOC(=O)c1cc2c(-c3ccc(C(F)(F)F)cc3C(F)(F)F)nc(N)nc2s1` [Example 4]: the IC50 is less than 10 µM.

In the case of `CCOC(=O)c1cc2c(C(=O)c3ccc(F)cc3)nc(N)nc2s1` [Example 305], the IC50 is less than 10 µM.

For the molecule `CCOC(=O)c1cc2c(-c3ccc(OCC(C)C)cc3C)nc(N)nc2s1` [Example 189], the IC50 was more than 10 µM.

On to `CCOC(=O)c1cc2c(-c3cccc(C)c3C)nc(N)nc2s1` [Example 87], for which the 50% inhibitory concentration (IC50) is less than 10 µM.

On to `CCOC(=O)c1cc2c(-c3c(Cl)cccc3OC)nc(N)nc2s1` [Example 147], for which the IC50 is more than 10 µM.

For the molecule `Nc1nc(-c2ccc(Cl)cc2Cl)c2cc(C(=O)NC3CN4CCC3CC4)sc2n1` (stereo not shown) [Example 158], the half-maximal inhibitory concentration (IC50) was less than 10 µM.

For `CCOC(=O)c1cc2c(-c3ccc(O)cc3C)nc(N)nc2s1` [Example 184, 2-Amino-4-(4-hydroxy-2-methyl-phenyl)-thieno[2,3-d]pyrimidine-6-carboxylic acid ethyl ester], the IC50 was less than 10 µM.

As to `CCOC(=O)c1cc2c(NCCCc3c[nH]nc3O)nc(N)nc2s1` [Example 36], the IC50 was more than 10 µM.

Regarding `C=CCOc1ccc(-c2nc(N)nc3sc(C(=O)OCC)cc23)c(C)c1` [Example 187], the 50% inhibitory concentration (IC50) is less than 10 µM.

With `CCNC(=O)c1cc2c(-c3cc(C=O)ccc3C)nc(N)nc2s1` [Example 170], the IC50 was less than 10 µM.

As for `CCNC(=O)COc1ccc(-c2nc(N)nc3sc(C(=O)OCC)cc23)c(C)c1` [Example 195], the 50% inhibitory concentration (IC50) is less than 10 µM.

For `Nc1nc(-c2ccccc2)c2cc(C(=O)NCCO)sc2n1` [Example 72], the 50% inhibitory concentration (IC50) was less than 10 µM.

Take `CCNC(=O)c1cc2c(-c3cc(OCCN4CCCCC4)c(Cl)cc3Cl)nc(N)nc2s1` [Example 238]: the IC50 was less than 10 µM.

Turning to `Nc1nc(-c2ccc(Cl)cc2Cl)c2cc(C(=O)NCCCS(=O)(=O)O)sc2n1` [Example 144], the IC50 was less than 10 µM.

`CCOC(=O)c1cc2c(/C=C/C(C)(C)C)nc(N)nc2s1` [Example 289]: the IC50 is more than 10 µM.

Consider `CCOC(=O)c1cc2c(-c3c[nH]c4ccccc34)nc(N)nc2s1` [Example 294], for which the IC50 was more than 10 µM.

Turning to `Nc1nc(-c2ccc(Cl)cc2Cl)c2cc(C(=O)NCc3ccc(F)cc3)sc2n1` [Example 120], the concentration for half-maximal inhibition (IC50) was less than 10 µM.

Consider `CCOC(=O)c1cc2c(-c3cc(C)ccc3C)nc(N)nc2s1` [Example 88], for which the IC50 is less than 10 µM.

With `CCOC(=O)c1cc2c(C(=O)c3cc(C)cc(C)c3)nc(N)nc2s1` [Example 300], the concentration for half-maximal inhibition (IC50) was less than 10 µM.

Regarding `Nc1nc(-c2ccccc2)c2cc(C(=O)NCCc3cccnc3)sc2n1` [Example 51], the half-inhibitory concentration (IC50) was more than 10 µM.

On to `Nc1nc(-c2ccc(Cl)cc2Cl)c2cc(C(=O)Nc3ccc(Cl)cc3)sc2n1` [Example 111], for which the IC50 is less than 10 µM.

Take `CCOC(=O)c1cc2c(Nc3ccc4cn[nH]c4c3)nc(N)nc2s1` [Example 39]: the IC50 is more than 10 µM.

`CCOC(=O)c1cc2c(-c3ccc(CN4CCCC4)cc3)nc(N)nc2s1` [Example 30]: the concentration for half-maximal inhibition (IC50) was more than 10 µM.

`CSCC[C@H](NC(=O)c1cc2c(-c3ccc(Cl)cc3Cl)nc(N)nc2s1)C(N)=O` [Example 166]: the IC50 is less than 10 µM.

On to `CC(C)NC(=O)c1cc2c(-c3cc(OCCN4CCCC4)c(Cl)cc3Cl)nc(N)nc2s1` [Example 257], for which the 50% inhibitory concentration (IC50) was less than 10 µM.

Take `CCOC(=O)c1cc2c(-c3cc(Cl)ccc3Cl)nc(N)nc2s1` [Example 106]: the IC50 is more than 10 µM.

For `CC(C)NC(=O)c1cc2c(-c3cc(OCc4ccccc4)c(Cl)cc3Cl)nc(N)nc2s1` [Example 242], the half-inhibitory concentration (IC50) is less than 10 µM.

Regarding `Nc1nc(-c2ccccc2)c2cc(C(=O)NCCCc3ccccc3)sc2n1` [Example 50], the IC50 is more than 10 µM.

On to `CCOC(=O)c1cc2c(-c3ccc(OCC(N)=O)cc3C)nc(N)nc2s1` [Example 191], for which the 50% inhibitory concentration (IC50) was less than 10 µM.

Consider `CCCNCc1cc(-c2nc(N)nc3sc(C(=O)NCC)cc23)c(C)cc1C` [Example 231], for which the IC50 is less than 10 µM.

Take `CCNC(=O)c1cc2c(-c3cc(CNCCO)c(C)cc3C)nc(N)nc2s1` [Example 234]: the half-maximal inhibitory concentration (IC50) is less than 10 µM.

`Nc1nc(-c2ccccc2)c2cc(C(=O)NCCN3CCOCC3)sc2n1` [Example 46]: the IC50 is more than 10 µM.

Turning to `CCOC(=O)c1cc2c(-c3cccc(Cl)c3)nc(N)nc2s1` [Example 14], the 50% inhibitory concentration (IC50) was more than 10 µM.

`CCOC(=O)c1cc2c(-c3ccc(OCC(=O)OC(C)(C)C)cc3C)nc(N)nc2s1` [Example 192]: the half-maximal inhibitory concentration (IC50) is more than 10 µM.

Consider `Nc1nc(-c2ccc(Cl)cc2Cl)c2cc(C(=O)Nc3cccc(Cl)c3)sc2n1` [Example 109], for which the 50% inhibitory concentration (IC50) was less than 10 µM.

Consider `CCOC(=O)c1cc2c(-c3ccc(OCC(=O)O)cc3C)nc(N)nc2s1` [Example 193], for which the IC50 was more than 10 µM.

As for `CCNC(=O)c1cc2c(-c3cc(CNCc4cccnc4)ccc3C)nc(N)nc2s1` [Example 217], the concentration for half-maximal inhibition (IC50) is less than 10 µM.

On to `COC(=O)c1cc2c(NCc3ccccc3)nc(N)nc2s1` [Example 22, 2-Amino-4-benzylamino-thieno[2,3-d]pyrimidine-6-carboxylic acid methyl ester], for which the concentration for half-maximal inhibition (IC50) was more than 10 µM.

As to `CCOC(=O)c1cc2c(C(C)(O)c3ccc4c(c3)OCO4)nc(N)nc2s1` (stereo not shown) [Example 315, 2-Amino-4-(1-benzo[1,3]dioxol-5-yl-1-hydroxy-ethyl)-thieno[2,3-d]pyrimidine-6-carboxylic acid ethyl ester], the IC50 is less than 10 µM.

For `Nc1nc(-c2ccc(Cl)cc2Cl)c2cc(C(=O)NCc3ccc4c(c3)OCO4)sc2n1` [Example 119], the IC50 was less than 10 µM.

On to `CCNC(=O)c1cc2c(-c3cc(CNCCc4cccs4)ccc3C)nc(N)nc2s1` [Example 214], for which the 50% inhibitory concentration (IC50) is less than 10 µM.

As to `CCOC(=O)c1cc2c(/C=C/c3cccc(C(F)(F)F)c3)nc(N)nc2s1` [Example 284], the IC50 was less than 10 µM.

With `CCCNC(=O)c1cc2c(-c3ccccc3)nc(N)nc2s1` [Example 47], the 50% inhibitory concentration (IC50) was less than 10 µM.

Turning to `CCNC(=O)c1cc2c(-c3cc(OCC(=O)N4CCOCC4)c(Cl)cc3Cl)nc(N)nc2s1` [Example 271], the IC50 was less than 10 µM.

`CNC(=O)c1cc2c(N(C)Cc3ccccc3)nc(N)nc2s1` [Example 67]: the IC50 is more than 10 µM.

Take `Nc1nc(-c2ccc(Cl)cc2Cl)c2cc(C(=O)NCCCO)sc2n1` [Example 101]: the IC50 was less than 10 µM.

Consider `Cc1ccc(-c2nc(N)nc3sc(C(=O)NCCc4c[nH]cn4)cc23)c(C)c1` [Example 86], for which the concentration for half-maximal inhibition (IC50) was less than 10 µM.

Regarding `CCOC(=O)c1cc2c(C=Cc3ccccc3)nc(N)nc2s1` [275 Step 1], the half-inhibitory concentration (IC50) was less than 10 µM.

As to `CC(C)C[C@H](NC(=O)c1cc2c(-c3ccc(Cl)cc3Cl)nc(N)nc2s1)C(N)=O` [Example 161], the IC50 was less than 10 µM.

In the case of `CCOC(=O)c1cc2c(/C=C/c3ccccc3)nc(N)nc2s1` [Example 278], the half-inhibitory concentration (IC50) is less than 10 µM.

On to `CCOC(=O)c1cc2c(-c3cccc(C(N)=O)c3)nc(N)nc2s1` [Example 40], for which the 50% inhibitory concentration (IC50) is more than 10 µM.

Turning to `CCOC(=O)c1cc2c(-c3ccccn3)nc(N)nc2s1` [Example 104], the IC50 was more than 10 µM.

Turning to `CCOC(=O)c1cc2c(-c3ccc(OCc4ccccc4)cc3C)nc(N)nc2s1` [Example 90], the 50% inhibitory concentration (IC50) is more than 10 µM.

For the molecule `CCNC(=O)c1cc2c(-c3cc(CNCCc4cnc[nH]4)ccc3C)nc(N)nc2s1` [Example 204], the half-maximal inhibitory concentration (IC50) was less than 10 µM.

For the molecule `CCNC(=O)c1cc2c(-c3cc(CNCc4ccc(C)o4)ccc3C)nc(N)nc2s1` [Example 211], the half-maximal inhibitory concentration (IC50) is less than 10 µM.

On to `CCNC(=O)c1cc2c(-c3ccc(Cl)cc3C)nc(N)nc2s1` [Example 151], for which the 50% inhibitory concentration (IC50) was less than 10 µM.

For `Cc1ccc(-c2nc(N)nc3sc(C(=O)NCc4ccccc4)cc23)c(C)c1` [Example 92], the half-maximal inhibitory concentration (IC50) was less than 10 µM.

Turning to `CCNC(=O)c1ccc(C)c(-c2nc(N)nc3sc(C(=O)NCC)cc23)c1` [Example 180], the IC50 is less than 10 µM.

For the molecule `CCOC(=O)c1cc2c(-c3ccc(OCCCO)cc3C)nc(N)nc2s1` [Example 194], the concentration for half-maximal inhibition (IC50) was less than 10 µM.

For `CC(C)NC(=O)c1cc2c(-c3ccccc3)nc(N)nc2s1` [Example 56], the IC50 is less than 10 µM.

Regarding `COc1ccc(CNC(=O)c2cc3c(-c4ccc(Cl)cc4Cl)nc(N)nc3s2)cc1` [Example 118], the 50% inhibitory concentration (IC50) was less than 10 µM.

`CCOC(=O)c1cc2c(-c3ccc(Cl)cc3)nc(N)nc2s1` [Example 169]: the IC50 was less than 10 µM.

Turning to `Nc1nc(-c2ccc(Cl)cc2Cl)c2cc(C(=O)NCCCN3CCCC3)sc2n1` [Example 145], the concentration for half-maximal inhibition (IC50) was less than 10 µM.

For `C=C(c1ccc(Cl)cc1)c1nc(N)nc2sc(C(=O)OCC)cc12` [Example 280], the 50% inhibitory concentration (IC50) was less than 10 µM.
